Results taken from patent US6451801B1, “Compounds and methods for treatment of asthma, allergy and inflammatory disorders” (UCB, S.A., priority 1999, dated 2002).

Key:
[1] = biological target: T1, human cloned H1 receptor (Homo sapiens, UniProt P35367); assay: CHO-K1 H1R binding assay; conditions: 3H-pyrilamine 2 nM, CHO-K1 membranes, 3 hours at 37° C.; read-out: CHOH1 K1
T1 construct: expressed in transfected cells; host or cells: CHO-K1
Experimental: CHO-K1 cells expressing the human cloned H1 receptor are grown to confluence in tissue culture dishes. Cells are harvested using D-PBS buffer (JRH Biosciences), kept at 4° C., centrifuging to pellet cells (4° C., 500 g, 10 min). The final cell pellet is homogenized and resuspended using Tris/sucrose buffer (20 mM Tris, 250 mM sucrose, pH 7.4 at 4° C.). Aliquots of the membrane preparation are stored at −70° C.
On the day of assay, the membrane preparation is thawed and centrifuged (TLA100.3 rotor, 4° C., 15 min, 23,000 rpm). The pellet is resuspended in Tris/sucrose buffer initially and then diluted further as necessary using assay buffer A (50 mM Na/KPO4, 2 mM MgCl2, 0.5% (w/v) BSA, pH 7.5).
For the binding assay, the membrane preparation, test compound and ^3H-pyrilamine (2 nM final) in buffer A with 1% (v/v) DMSO final are incubated in a 96-well polypropylene plate for 3 hours at 37° C. Non-specific binding is determined in the presence of 10 μM pyrilamine. A 96-well harvester (Packard) is used to harvest the 96-well plate onto a GF/B filter plate pre-treated with 0.1% (v/v) PEI. The plate is counted in a Packard Topcounter after adding Microscint 20 (Packard) scintillation fluid. The Ki for each compound at the histamine H1 receptor is then calculated from these counts.

[2] = biological target: T2, human 5-lipoxygenase enzyme (Homo sapiens, UniProt P09917); assay: Inhibition of LTB4 production in human whole blood; format: cell-based; conditions: human whole blood, calcium ionophore A23187 50 μM, LTB4 by EIA; read-out: HWB IC50
T2 construct: endogenous in cells; host or cells: human whole blood (leukocytes) stimulated with A23187
T2 sequence (P09917 1-674): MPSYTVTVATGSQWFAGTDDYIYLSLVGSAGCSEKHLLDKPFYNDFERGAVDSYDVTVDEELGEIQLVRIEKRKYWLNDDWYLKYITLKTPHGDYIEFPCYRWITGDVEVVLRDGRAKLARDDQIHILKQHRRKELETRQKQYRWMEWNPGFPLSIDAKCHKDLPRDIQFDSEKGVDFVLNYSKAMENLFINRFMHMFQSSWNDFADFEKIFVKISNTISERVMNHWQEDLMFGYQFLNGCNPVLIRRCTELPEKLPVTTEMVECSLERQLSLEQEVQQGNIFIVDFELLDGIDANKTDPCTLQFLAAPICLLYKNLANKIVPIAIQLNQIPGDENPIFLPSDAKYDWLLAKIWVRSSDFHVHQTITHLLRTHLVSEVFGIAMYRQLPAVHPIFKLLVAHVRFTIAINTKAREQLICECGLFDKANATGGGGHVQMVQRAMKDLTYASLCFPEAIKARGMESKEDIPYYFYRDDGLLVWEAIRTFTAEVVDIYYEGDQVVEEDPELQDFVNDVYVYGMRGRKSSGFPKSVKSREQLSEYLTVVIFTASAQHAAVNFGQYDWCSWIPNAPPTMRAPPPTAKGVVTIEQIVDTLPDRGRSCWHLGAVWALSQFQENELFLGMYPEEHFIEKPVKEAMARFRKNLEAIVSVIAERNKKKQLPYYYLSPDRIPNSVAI
Experimental: This assay examines the ability of a compound to inhibit leukotriene B4 production from human blood stimulated with calcium ionophore. As this production of leukotriene B4 is mediated via the activation of the 5-lipoxygenase enzyme, this assay is predictive of a compound's ability to inhibit the human 5-lipoxygenase enzyme.
The procedure for the assay is as follows. Blood is drawn from normal human volunteers into tubes containing heparin. 1 ml of the heparinized blood is pipetted into a 1.5 ml polypropylene tube. To this sample is added either different concentrations of the test compound (5 μl) dissolved in DMSO or 5 μl of DMSO as a vehicle control. These samples are incubated in a water bath, at 37° C. for 15 min. 5 μl of the calcium ionophore A23187 (at a final concentration of 50 μM) is then added to each sample, which is vortexed and placed back in the water bath for 30 min. The samples are then centrifuged at 2500 rpm for 10 min. at 4° C. 50 μl of the supernatant is transferred into pre-cooled Eppendorf tubes containing 950 μl of enzyme immunoassay (EIA) buffer. A commercially available EIA kit (Cayman Chemical Co., Ann Arbor, Mich., USA) is used to subsequently measure the LTB4 production in the samples. The LTB4 levels produced in the vehicle control sample is then compared to those in which the test compound has been added. From this a percent inhibition of LTB4 production by each concentration of test compound is calculated and the IC50 for inhibition of LTB4 production for each test compound is determined.

[3] = test system: histamine-induced bronchoconstriction; assay: Antihistaminergic activity in vivo (histamine-induced bronchoconstriction); conditions: Cavia porcellus, guinea pig, oral, 2 mg/kg
Experimental: Male, Hartley guinea pigs are obtained from Charles River Labs at a body weight of 350 -400 grams. Inhibition of histamine activity is measured by the method of Konzett and Rössler (Naonyn-Schmiedebergs Arch. Exp. Path. Pharmakol. 195, 71-74 (1940). Anaethetized guinea pigs are subjected to artificial ventilation. The endotracheal pressure is recorded. Bronchoconstriction is induced by successive intravenous injections of histamine. The test compounds are administered orally in a 1% methocellulose suspension at set timepoints prior to the administration of histamine.
The results (Table 2) show the percent inhibition of histamine-induced bronchoconstriction by selected compounds at multiple time points post oral dosing. 50% inhibition or greater is considered significant.

[4] = test system: 5-lipoxygenase; assay: 5-Lipoxygenase inhibitory activity in vivo; conditions: guinea pig, oral, 2 mg/kg
Experimental: Male, Hartley guinea pigs are obtained from Charles River Labs at a body weight of 350-400 grams. Compounds are prepared at a volume of [1-2 mg/ml] in 1% methocellulose for oral dosing. Animals are separated into groups of five (5). Each assay includes a control group dosed with vehicle. Each group of animals is dosed with either vehicle or compound by oral gavage. Animals are allowed to rest for one, three, or six hours after dosing. Control animals are allowed to rest for three hours. At the appropriate times, the animals are anesthetized with Urethane at 1.5 g/kg, ip. Blood is drawn into a heparinized syringe via cardiac puncture. Blood (0.5 ml) is aliquoted into separately-labeled 1.5 ml eppendorf tubes. Each sample is loaded with 5 μl of [15 mM] Arachidonic Acid, and placed in a 37° C. water bath for five minutes. After five minutes, the blood is stimulated with 5 μl of [5 mM] A23187 (Calcium Ionophore) and retained in the water bath for an additional 30 minutes. After the thirty minutes, the blood samples are removed from the water bath and centrifuged at 14,000 rpm for 2 minutes. Plasma is diluted to EIA buffer and an EIA is performed following manufacturer instructions (Cayman Chemical Co., Ann Arbor, Mich., USA). The results (Table 3) show the percent inhibition of 5-lipoxygenase by selected compounds at multiple time points post oral dosing. 50% inhibition or greater is considered significant.

T1 sequence (P35367 whole entry): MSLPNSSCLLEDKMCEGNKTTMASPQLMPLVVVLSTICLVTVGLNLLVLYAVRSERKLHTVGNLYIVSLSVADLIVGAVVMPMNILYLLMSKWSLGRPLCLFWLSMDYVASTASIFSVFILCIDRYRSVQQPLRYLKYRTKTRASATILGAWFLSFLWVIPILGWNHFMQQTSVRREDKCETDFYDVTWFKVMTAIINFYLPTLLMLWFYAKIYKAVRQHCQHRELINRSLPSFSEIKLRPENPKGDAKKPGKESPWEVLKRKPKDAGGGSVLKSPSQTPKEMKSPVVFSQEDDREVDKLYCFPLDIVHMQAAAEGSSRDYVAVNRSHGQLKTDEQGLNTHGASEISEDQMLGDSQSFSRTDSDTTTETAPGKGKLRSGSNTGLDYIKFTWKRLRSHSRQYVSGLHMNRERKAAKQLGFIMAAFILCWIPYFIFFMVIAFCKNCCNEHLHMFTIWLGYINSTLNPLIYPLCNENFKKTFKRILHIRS

Molecule | Ki [1] | IC50 [2] | inhibition in vivo at 2 mg/kg ([3]; 3 hrs) | inhibition in vivo at 2 mg/kg ([3]; 6 hrs) | % inhibition of 5-lipoxygenase ([4]; 1 hour) | % inhibition of 5-lipoxygenase ([4]; 6 hours)
NC(=O)N(O)CCC#C[C@@H]1CC[C@@H](CN2CCN([C@H](c3ccccc3)c3ccc(Cl)cc3)CC2)O1 [Compound 46, N-{4-[5-({4-[(1R)(4-chlorophenyl)phenylmethyl]piperazinyl}methyl)(2S,5S)oxolan-2-yl]but-3-ynyl}amino-N-hydroxyamide] | 133 nM | 313 nM | – | – | – | –
NC(=O)N(O)Cc1ccc(CN2CCN([C@H](c3ccccc3)c3ccc(Cl)cc3)CC2)o1 [Compound 26, N-{[5-({4-[(1R) (4-chlorophenyl)phenylmethyl]piperazinyl}methyl)(2-furyl)]methyl} amino-N-hydroxyamide] | 4 nM | 1710 nM | – | – | – | –
NC(=O)N(O)CCCCc1cccc(OCCN2CCN(C(c3ccccc3)c3ccccc3)CC2)c1 [Compound 30, amino-N-[4-(3-{2-[4-(diphenylmethyl)piperazinyl]ethoxy}phenyl)butyl]-N-hydroxyamide] | 36 nM | 412 nM | – | – | – | –
N-[2-(2-{4-[(1R)(4-chlorophenyl)phenylmethyl] piperazinyl}ethoxy)ethyl]amino-N-hydroxyamide [Compound 22] | 8 nM | 1470 nM | – | – | – | –
NC(=O)N(O)Cc1cccc(C#CCN2CCN([C@H](c3ccccc3)c3ccc(Cl)cc3)CC2)c1 [Compound 8, N-{[3-(3-{4-[(1R) (4-chlorophenyl)phenylmethyl]piperazinyl}prop-1-ynyl)phenyl]methyl} amino-N-hydroxyamide] | 220 nM | 5770 nM | – | – | – | –
NC(=O)N(O)CC#CCN1CCN(C(c2ccc(F)cc2)c2ccc(F)cc2)CC1 [Compound 16, amino-N-(4-{4-[bis(4-fluorophenyl)methyl]piperazinyl}but-2-ynyl)-N-hydroxyamide] | 94 nM | 2660 nM | – | – | – | –
NC(=O)N(O)Cc1ccc(C#CCN2CCN([C@H](c3ccccc3)c3ccc(Cl)cc3)CC2)cc1 [Compound 3, N-{[4-(3-{4-[(1R) (4-chlorophenyl)phenylmethyl]piperazinyl}prop-1-ynyl)phenyl]methyl} amino-N-hydroxyamide] | 260 nM | 1680 nM | – | – | – | –
NC(=O)N(O)CCOCCN1CCN([C@H](c2ccccc2)c2ccc(Cl)cc2)CC1 (racemic) [Compound 18, amino-N-[2-(2-{4-[(4-chlorophenyl)phenylmethyl]piperazinyl}ethoxy)ethyl]-N-hydroxyamide] | 15 nM | 2100 nM | – | – | – | –
COC(=O)c1cc(CCCCN(O)C(N)=O)ccc1OCCN1CCN([C@H](c2ccccc2)c2ccc(Cl)cc2)CC1 [Compound 40, methyl2-(2-{4-[(1R) (4-chlorophenyl)phenyl-methyl]piperazinyl}ethoxy)-5-[4-(amino-hydroxycarbonylamino)butyl]benzoate] | 120 nM | 122 nM | – | – | – | –
NC(=O)N(O)CCC#Cc1cccc(OCCN2CCN([C@H](c3ccccc3)c3ccc(Cl)cc3)CC2)c1 [Compound 23, N-{4-[3-(2-{4-[(1R)(4-chlorophenyl)phenylmethyl]piperazinyl}ethoxy)phenyl]but-3-ynyl}amino-N-hydroxyamide] | 10 nM | 287 nM | 80% | 92% | 80% | –
NC(=O)N(O)CCCCc1ccc(OCCN2CCN([C@H](c3ccccc3)c3ccc(Cl)cc3)CC2)c(C(=O)O)c1 [Compound 43, 2-(2-{4-[(1R)(4-chlorophenyl)phenylmethyl]piperazinyl}ethoxy)-5-[4-(aminohydroxycarbonylamino)butyl] benzoic acid] | 2 nM | 2740 nM | – | – | – | –
NC(=O)c1cc(CCCCN(O)C(N)=O)ccc1OCCN1CCN([C@H](c2ccccc2)c2ccc(Cl)cc2)CC1 [Compound 42, 2-(2-{4-[(1R)(4-chloro-phenyl)phenylmethyl]piperazinyl}ethoxy)-5-[4-(aminohydroxy-carbonylamino)butyl] benzamide] | 35 nM | 106 nM | – | – | – | –
NC(=O)N(O)Cc1cccc(OCCN2CCN([C@H](c3ccccc3)c3ccc(Cl)cc3)CC2)c1 [Compound 5, N-{[3-(2-{4-[(1R) (4-chlorophenyl)phenylmethyl]piperazinyl}ethoxy)phenyl]methyl} amino-N-hydroxyamide] | 23 nM | 2040 nM | – | – | – | –
CN(O)C(=O)NCc1cccc(OCCN2CCN([C@H](c3ccccc3)c3ccc(Cl)cc3)CC2)c1 [Compound 24, N-{[3-(2-{4-[(1R) (4-chlorophenyl)phenylmethyl]piperazinyl}ethoxy)phenyl]methyl} (methyl(hydroxyamino)) carboxamide] | 7 nM | 253 nM | – | – | – | –
COC(=O)c1cc(C#CCCN(O)C(N)=O)ccc1OCCN1CCN([C@H](c2ccccc2)c2ccc(Cl)cc2)CC1 [Compound 36, methyl2-(2-{4-[(1R) (4-chlorophenyl)phenyl-methyl]piperazinyl}ethoxy)-5-[4-(amino-hydroxycarbonylamino)but-1-ynyl]benzoate] | 420 nM | 94 nM | – | – | – | –
NC(=O)N(O)CC#CCN1CCN([C@H](c2ccccc2)c2ccc(Cl)cc2)CC1 [Compound 9, N-(4-{4-[(1R) (4-chlorophenyl)phenylmethyl]piperazinyl}but-2-ynyl) amino-N-hydroxyamide] | 12 nM | 4220 nM | – | – | – | –
NC(=O)N(O)Cc1ccc(CCCN2CCN([C@H](c3ccccc3)c3ccc(Cl)cc3)CC2)cc1 [Compound 13, N-{[4-(3-{4-[(1R) (4-chlorophenyl)phenylmethyl]piperazinyl}propyl)phenyl]methyl} amino-N-hydroxyamide] | 10 nM | 2440 nM | – | – | – | –
NC(=O)N(O)CCC#Cc1ccc(OCCN2CCN([C@H](c3ccccc3)c3ccc(Cl)cc3)CC2)cc1 [Compound 12, N-{4-[4-(2-{4-[(1R) (4-chlorophenyl)phenylmethyl]piperazinyl}ethoxy)phenyl]but-3-ynyl} amino-N-hydroxyamide] | – | 267 nM | 62% | 66% | – | 80%
NC(=O)N(O)CCC#Cc1ccc(OCCN2CCN([C@H](c3ccccc3)c3ccc(Cl)cc3)CC2)c(C(=O)O)c1 [Compound 37, 2-(2-{4-[(1R)(4-chlorophenyl)phenyl-methyl]piperazinyl}ethoxy)-5-[4-(amino-hydroxycarbonylamino)but-1-ynyl]benzoic acid] | 4 nM | 6590 nM | – | – | – | –
